Results taken from patent US20260125359A1, “HETEROARYL COMPOUNDS AS MULTI-TARGET PROTEIN KINASE INHIBITORS” (FUJIAN HAIXI PHARMACEUTICALS CO., LTD., priority 2023, published 2026).

Key:
CSF-1R = CSF-1R (Homo sapiens, UniProt P07333); assay: CSF-1R in vitro kinase activity assay (HTRF kinEASE TK); format: biochemical; conditions: for inhibition at 0.01 µM: compound 10 nM, read-out: CSF-1R inhibition rate, 10 nM; for inhibition at 0.1 µM: compound 100 nM, read-out: CSF-1R inhibition rate, 100 nM
Description: (§1) CSF-1R, PDGFR-α, KDR (VEGFR2) and KIT in vitro Kinase Activity Assay:
(§2) • ENVISION (Perkinelmer, 2104) • White 384-well MicroPlate (Cat #264706, Nunc) • HTRF kinEASE TK kit main reagents (Cat #62TKOPEC, Cisbio) • TK-biotin substrate • Streptavidin-XL665 • TK Antibody-Cryptate • 5× Enzymatic buffer (5×KB) • Staphylococcal enterotoxin B (SEB) • HTRF Detection buffer • CSF-1R (Cat #PV3249, Invitrogen) • PDGFR-α (Cat #PV3811, Invitrogen) • KDR (Cat #PV3660, Invitrogen) • KIT (Cat #08-156, Carna) • ATP 10 mM (Cat #PV3227, Invitrogen) • DTT 1 M (Cat #D5545, Sigma) • MgCl2 1 M (Cat #M8266, Sigma) • MnCl2 1 M (Cat #244589, Sigma)
(§3) Dilute Substrate-TK and ATP to 5× of the reaction concentration using 1× Kinase Buffer.
(§4) Prepare the 5× enzyme working solution using 1× Kinase Buffer.
(§5) Prepare the 4×Sa-XL665 working solution using Detection Buffer.
(§6) Dilute TK-Ab-Cryptate 100 times using Detection Buffer to prepare the working solution.
(§7) After all reagents were prepared according to the methods described above, except for the enzyme, they were equilibrated to room temperature before starting the sample addition. • a) First, 2.5% DMSO solutions were prepared separately using the pre-prepared 1× kinase buffer (DMSO concentrations that were too high could affect the reaction, so the final concentration of DMSO was controlled at 1%). Then, the corresponding 2.5% DMSO solution for the enzyme was used to dilute the test compounds. Compounds were screened with two concentrations of 100 nM and 10 nM. Except for the control wells, 4 μL of the diluted test compound solution was added to the reaction wells, and 4 μL of the pre-prepared 2.5% DMSO solution was added to the control wells. • b) 2 μL of the pre-prepared TK-biotin substrate solution at the corresponding concentration for the kinase was added to all reaction wells. • c) 2 μL of the pre-prepared enzyme solution at the corresponding concentration was added to all reaction wells except the negative control wells. For the negative control wells, 2 μL of 1× kinase buffer corresponding to the enzyme was added to make up the volume. The plate was sealed with sealing film, mixed gently, and incubated at room temperature for 10 min to allow the compounds to fully interact with the enzyme. • d) 2 μL of the ATP solution at the corresponding concentration for the enzyme was added to all reaction wells to initiate the kinase reaction. ATP concentrations and reaction times for enzyme screening are shown in Table 26 • e) Five minutes before the end of the kinase reaction, the detection solution was prepared. The detection buffer from the kit was used to prepare detection solutions for Streptavidin-XL665 and TK antibody europium cryptate (1:100) at the appropriate concentrations for the two enzymes. • f) After the kinase reaction was completed, 5 μL of the diluted Streptavidin-XL665 solution was added to all reaction wells. After mixing, the diluted TK antibody europium cryptate detection solution was immediately added. • g) The plate was sealed and mixed, incubated at room temperature for 1 hour, and the fluorescence signal was detected using the ENVISION (PerkinElmer) instrument (excitation at 320 nm, emission at 665 nm and 615 nm). The inhibition rate for each well was calculated based on the full-activity control wells and background signal wells, and the average value of the replicates was taken.

KIT = KIT (Homo sapiens, UniProt P10721); assay: KIT in vitro kinase activity assay (HTRF kinEASE TK); format: biochemical; conditions: for inhibition at 0.01 µM: compound 10 nM, read-out: KIT inhibition rate, 10 nM; for inhibition at 0.1 µM: compound 100 nM, read-out: KIT inhibition rate, 100 nM
Description: as §1, §2, §3, §4, §5, §6, §7

Sequence of KIT (P10721 26-976): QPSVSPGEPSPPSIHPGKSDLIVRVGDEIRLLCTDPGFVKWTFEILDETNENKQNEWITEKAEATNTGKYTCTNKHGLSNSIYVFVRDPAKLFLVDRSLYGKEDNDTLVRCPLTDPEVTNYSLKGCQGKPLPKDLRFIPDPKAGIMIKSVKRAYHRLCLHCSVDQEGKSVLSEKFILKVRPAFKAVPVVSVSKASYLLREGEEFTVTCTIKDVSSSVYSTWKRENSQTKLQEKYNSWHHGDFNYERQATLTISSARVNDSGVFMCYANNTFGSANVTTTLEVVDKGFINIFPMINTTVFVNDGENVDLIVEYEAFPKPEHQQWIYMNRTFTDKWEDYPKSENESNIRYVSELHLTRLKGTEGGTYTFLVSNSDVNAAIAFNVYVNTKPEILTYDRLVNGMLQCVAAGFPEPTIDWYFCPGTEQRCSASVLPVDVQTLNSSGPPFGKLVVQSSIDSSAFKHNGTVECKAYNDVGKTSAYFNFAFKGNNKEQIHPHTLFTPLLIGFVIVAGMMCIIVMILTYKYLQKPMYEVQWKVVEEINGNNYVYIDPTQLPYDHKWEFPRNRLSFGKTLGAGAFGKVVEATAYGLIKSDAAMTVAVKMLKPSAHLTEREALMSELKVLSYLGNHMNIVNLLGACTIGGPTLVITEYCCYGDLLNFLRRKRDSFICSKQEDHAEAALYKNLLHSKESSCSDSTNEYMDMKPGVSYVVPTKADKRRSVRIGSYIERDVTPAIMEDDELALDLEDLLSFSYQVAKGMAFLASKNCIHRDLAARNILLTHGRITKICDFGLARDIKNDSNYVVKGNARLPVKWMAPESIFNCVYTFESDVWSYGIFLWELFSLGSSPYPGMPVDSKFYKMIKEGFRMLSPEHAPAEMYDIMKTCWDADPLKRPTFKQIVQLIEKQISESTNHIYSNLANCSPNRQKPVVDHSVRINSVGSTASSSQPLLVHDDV
Sequence of CSF-1R (P07333 20-972): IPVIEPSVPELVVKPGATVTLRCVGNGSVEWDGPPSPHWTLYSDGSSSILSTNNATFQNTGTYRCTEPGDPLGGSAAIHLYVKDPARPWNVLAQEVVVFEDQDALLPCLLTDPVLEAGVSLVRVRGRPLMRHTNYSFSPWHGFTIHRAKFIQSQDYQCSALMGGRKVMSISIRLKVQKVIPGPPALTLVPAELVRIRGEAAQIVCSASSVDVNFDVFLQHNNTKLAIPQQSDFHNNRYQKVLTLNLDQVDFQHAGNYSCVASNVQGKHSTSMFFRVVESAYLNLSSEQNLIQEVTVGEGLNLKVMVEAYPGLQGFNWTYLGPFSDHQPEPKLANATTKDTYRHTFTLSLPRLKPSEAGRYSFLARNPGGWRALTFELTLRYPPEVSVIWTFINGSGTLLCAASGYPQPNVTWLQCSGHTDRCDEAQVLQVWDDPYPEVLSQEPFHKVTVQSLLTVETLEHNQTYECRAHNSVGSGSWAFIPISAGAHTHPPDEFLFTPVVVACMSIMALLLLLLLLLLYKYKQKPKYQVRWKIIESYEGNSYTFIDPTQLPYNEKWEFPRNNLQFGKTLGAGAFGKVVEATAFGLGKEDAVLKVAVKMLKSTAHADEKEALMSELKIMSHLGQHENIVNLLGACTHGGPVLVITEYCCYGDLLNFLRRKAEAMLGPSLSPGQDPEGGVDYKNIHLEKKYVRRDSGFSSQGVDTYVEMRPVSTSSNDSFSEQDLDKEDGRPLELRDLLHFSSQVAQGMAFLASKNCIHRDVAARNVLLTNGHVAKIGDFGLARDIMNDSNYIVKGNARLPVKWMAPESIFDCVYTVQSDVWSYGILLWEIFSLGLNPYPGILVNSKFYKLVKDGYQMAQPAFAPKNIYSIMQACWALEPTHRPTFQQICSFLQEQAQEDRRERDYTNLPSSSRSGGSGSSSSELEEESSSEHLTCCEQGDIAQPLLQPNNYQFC

SMILES | inhibition at 0.01 µM (CSF-1R) [%] | inhibition at 0.1 µM (CSF-1R) [%] | inhibition at 0.01 µM (KIT) [%] | inhibition at 0.1 µM (KIT) [%]
Cn1ncc2ncc(N[C@H]3CCc4c(Nc5cc(C(C)(C)C)on5)cccc43)nc21 [Compound 86, (S)—N^4-(5-(tert-butyl)isoxazol-3-yl)-N1-(1-methyl-1H-pyrazolo[3,4-b]pyrazin-6-yl)-2,3-dihydro-1H-indene-1,4-diamine] | 46.6 | 95.9 | 23.4 | 82
Cc1cncc(NC(=O)c2cccc3c2CC[C@@H]3Oc2cncc(-c3cnn(C)c3)c2)c1 [Compound 19j] | 80.1 | 101 | 14.5 | 62.8
Cc1cc(NC(=O)c2cccc3c2CC[C@@H]3Oc2cncc(-c3cnn(C)c3)c2)cc(C)n1 [Compound 19k, (S)—N-(2,6-dimethylpyridin-4-yl)-1-((5-(1-methyl-1H-pyrazol-4-yl)pyridin-3-yl)oxy)-2,3-dihydro-1H-indene-4-carboxamide] | 57.6 | 97.4 | 21.8 | 63.7
Cn1cc(-c2cncc(N[C@H]3CCc4c(Nc5cc(C(C)(C)C)on5)cccc43)c2)cn1 [Compound 41, (S)—N^4-(5-(tert-butyl)isoxazol-3-yl)-N^1-(5-(1-methyl-1H-pyrazol-4-yl)pyridin-3-yl)-2,3-dihydro-1H-indene-1,4-diamine] | 26.9 | 100 | 7.5 | 66.4
Cn1ncc2ncc(N[C@H]3CCc4c(C(=O)Nc5cccc(C6CC6)c5)cccc43)cc21 [Compound 73, (S)—N-(3-cyclopropylphenyl)-1-((1-methyl-1H-pyrazolo[4,3-b]pyridin-6-yl)amino)-2,3-dihydro-1H-indene-4-carboxamide] | 70.2 | 101 | 59.1 | 99.7
Cn1cc(-c2cnc(N)c(O[C@H]3CCc4c(C(=O)Nc5cccc(C6CC6)c5)cccc43)c2)cn1 [Compound 4, (S)-1-((2-amino-5-(1-methyl-1H-pyrazol-4-yl)pyridin-3-yl)oxy)-N-(3-cyclopropylphenyl)-2,3-dihydro-1H-indene-4-carboxamide] | 80.1 | 89.8 | 76.8 | 99.2
CN(C)Cc1cncc(NC(=O)c2cccc3c2CC[C@@H]3Oc2cncc(-c3cnn(C)c3)c2)c1 [Compound 19h] | 72 | 96.6 | -3.9 | 4.9
CN(c1cncc(-c2cnn(C)c2)c1)[C@H]1CCc2c(C(=O)Nc3cncc(Cl)c3)cccc21 [Compound 21, (S)—N-(5-chloropyridin-3-yl)-1-(methyl (5-(1-methyl-1H-pyrazol-4-yl)pyridin-3-yl)amino)-2,3-dihydro-1H-indene-4-carboxamide] | 48.6 | 100 | 2.4 | 15.3
Cc1cccc(C(=O)Nc2cccc3c2CC[C@@H]3Oc2cncc(-c3cnn(C)c3)c2)c1 [Compound 15, (S)-3-methyl-N-(1-((5-(1-methyl-1H-pyrazol-4-yl)pyridin-3-yl)oxy)-2,3-dihydro-1H-inden-4-yl)benzamide] | 49 | 90.5 | 13.3 | 31.6
CN1CCc2nc(NC(=O)c3cccc4c3CC[C@@H]4Oc3cncc(-c4cnn(C)c4)c3)sc2C1 [Compound 19f] | 27.5 | 95.4 | 12.1 | 53.9
Cn1cc(-c2cncc(O[C@H]3CCc4c(C(=O)Nc5cccc(C6CC6)c5)cccc43)c2)cn1 [Compound 19b] | 71.9 | 97.4 | 11.2 | 80.2
Cc1cncc(NC(=O)c2cccc3c2CC[C@@H]3Nc2cncc(-c3cnn(C)c3)c2)c1 [Compound 14as] | 89.7 | 97 | 58.7 | 94.7
Cn1cc(-c2cncc(N[C@H]3CCc4c(C(=O)Nc5cncc(Cl)c5)cccc43)c2)cn1 [Compound 14aa, (S)—N-(5-chloropyridin-3-yl)-1-((5-(1-methyl-1H-pyrazol-4-yl)pyridin-3-yl)amino)-2,3-dihydro-1H-indene-4-carboxamide] | 74.6 | 95.3 | 61.9 | 97.3
CN1CCc2nc(NC(=O)c3cccc4c3CC[C@@H]4Nc3cncc(-c4cnn(C)c4)c3)sc2C1 [Compound 14ba] | 42.1 | 95.9 | 60.1 | 95
Cc1cccc(NC(=O)c2cccc3c2CC[C@@H]3Nc2cncc(-c3cnn(C)c3)c2)c1 [Compound 13, (S)-1-((5-(1-methyl-1H-pyrazol-4-yl)pyridin-3-yl)amino)-N-(m-tolyl)-2,3-dihydro-1H-indene-4-carboxamide] | 79.9 | 93.5 | 73 | 97.5

Further lines, results first:

inhibition at 0.01 µM (CSF-1R) [%] | inhibition at 0.1 µM (CSF-1R) [%] | inhibition at 0.01 µM (KIT) [%] | inhibition at 0.1 µM (KIT) [%] | SMILES
73.7 | 96.5 | 22 | 47.8 | CN(c1cnc2cn(C)nc2c1)[C@H]1CCc2c(C(=O)Nc3cncc(Cl)c3)cccc21 [Compound 80k]
15.3 | 94.1 | 5.6 | 31.4 | Cc1cccc(NC(=O)c2cccc3c2CC[C@@H]3Oc2cnc3cn(C)nc3c2)n1 [Compound 76bd]
72.6 | 96.3 | 35.3 | 94.9 | Cn1cc2ncc(N[C@H]3CCc4c(C(=O)Nc5nc(C6CC6)cs5)cccc43)cc2n1 [Compound 74h, (S)—N-(4-cyclopropylthiazol-2-yl)-1-((2-methyl-2H-pyrazolo[4,3-b]pyridin-6-yl)amino)-2,3-dihydro-1H-indene-4-carboxamide]
75.2 | 95.8 | 89.6 | 100 | Cn1cc(-c2cncc(N[C@H]3CCc4c(C(=O)Nc5nn(C)c6ccccc56)cccc43)n2)cn1 [Compound 27g, (S)—N-(1-methyl-1H-indazol-3-yl)-1-((6-(1-methyl-1H-pyrazol-4-yl)pyrazin-2-yl)amino)-2,3-dihydro-1H-indene-4-carboxamide]
65.1 | 99.1 | 56 | 92.4 | Cn1cc2ncc(O[C@H]3CCc4c(C(=O)Nc5nn(C)c6cccc(F)c56)cccc43)cc2n1 [Compound 76aw]
55.8 | 100 | 14.5 | 38.8 | Cn1cc(-c2cncc(N[C@H]3CCc4c(Nc5noc(C(C)(C)C)n5)cccc43)c2)cn1 [Compound 42o]
105 | 103 | 91.2 | 95.9 | Cn1cc2ncc(O[C@H]3CCc4c(C(=O)Nc5nn(C)c6ccccc56)cccc43)cc2n1 [Compound 76al]
24.3 | 98.4 | 69.9 | 104 | CN(c1cnc2cn(C)nc2c1)[C@H]1CCc2c(C(=O)Nc3nn(C)c4ccccc34)cccc21 [Compound 80l]
71.9 | 97.3 | 12.6 | 54 | Cn1ncc2ncc(O[C@H]3CCc4c(C(=O)Nc5cncc(Cl)c5)cccc43)cc21 [Compound 76ac, (S)—N-(5-chloropyridin-3-yl)-1-((1-methyl-1H-pyrazolo[4,3-b]pyridin-6-yl)oxy)-2,3-dihydro-1H-indene-4-carboxamide]
